Key:
Botrytis cinerea = test: Mycelial Inhibition, Botrytis cinerea; type: cell-based; settings: Standard DIFOLATAN; 500 ppm, 25° C., 24 hours; 0 = more than 1.6 micrograms/cm^2 required for 99% control
Method: (§1) The compounds of the present invention were evaluated for in-vitro fungicidal effectiveness by means of a Mycelial Inhibition test. This test is designed to measure the fungitoxic activity of fungicidal chemicals in terms of their degree of inhibition of mycelium growth. Each compound to be tested was dissolved in acetone to 500 ppm concentration. Paper strips were infused with the particular mycelium growth by covering the paper with a potato dextrose broth culture of mycelial suspension. The papers were then placed on potato dextrose agar plates and sprayed by means of a microsprayer with the fungicidal solution. The treated paper strips were incubated at 25° C. and the data is taken after 24 hours. Fungicidal activities are measured by a zone of inhibited mycelial growth from the center of the paper strip. The effectiveness of the compounds tested for fungicidal activity is reported in Table II (a) for those compounds which were effective in inhibiting mycelial growth.
(§2) The activity is reported in terms of [formula]
(§3) When more than 1.6 micrograms/cm^2 for 99% control of the fungus for the test compound is required, the activity is reported as 0.

Erisiphe polygoni = test: Bean Powdery Mildew (seedling bean plants); type: in vivo; settings: 240 h; 250 ppm spray; bean seedlings, inoculated 1 day later; relative to untreated check; read-out: % Control BPM (Bean Powdery Mildew)
Method: The compounds of the invention were tested for the control of the Bean Powdery Mildew organism Erisiphe polygoni. Seedling bean plants were sprayed with a 250 ppm solution of the test compound in acetone, water and a nonionic emulsifier. The sprayed plants were then inoculated 1 day later with organism. The plants were maintained for 10 days at temperatures of 68° F. at night with daytime temperatures of 72° to 80° F.; relative humidity was maintained at 40% to 60%. The percent disease control provided by a given test compound was based on the percent disease reduction relative to the untreated check plants.

Plasmopara viticola = test: Grape Downy Mildew Control (detached grape leaves); type: in vivo; settings: in Vitis vinifera, 250 ppm spray, disease reduction relative to untreated check, read-out: % Control GDM (Grape Downy Mildew)
Method: Grape Downy Mildew Control
The compounds of the invention were tested for the control of the Grape Downy Mildew Control organism Plasmopara viticola. Detached leaves, between 70 and 85 mm in diameter, of 7-week old Vitis vinifera cultivar Emperor grape seedlings were used as hosts. The leaves were sprayed with a 250 ppm solution of the test compound in acetone. The sprayed leaves were dried, inoculated with a spore suspension of the organism, placed in a humid environmental chamber and incubated at 66° to 68° F. and about 100% relative humidity. After incubation for 2 days, the plants were then held in a greenhouse 7 to 9 days; then the amount of disease control was determined. The percent disease control provided by a given test compound was based on the percent disease reduction relative to untreated check plants.

Septoria apii = type: in vivo; settings: 250 ppm spray; celery plants; relative to untreated check
Uronyces phaseoli tipica = test: Leaf Rust / Bean Rust (pinto beans); type: in vivo; settings: 336 h, 250 ppm spray, about 14 days, relative to untreated check, read-out: % Control BR (Bean Rust)
Method: The Leaf Rust test was made using pinto beans. The pathogen was Uronyces phaseoli tipica. The pinto bean plants were sprayed with a 250 ppm solution of the test compound in an acetone-water mixture containing a nonionic emulsifier. The treated plants were inoculated thereafter with the pathogen and then incubated in an environmental chamber for approximately 20 hours at 100% relative humidity and a temperature of 68° to 70° F. The plants were then removed from the chamber, allowed to dry, and then maintained in a greenhouse at a 60% to 80% relative humidity. The rate of infection on the leaves was made after about 14 days. The percent disease control provided by a given test compound was based on the percent disease reduction relative to untreated check plants.

Rhizoctania solani = test: Mycelial Inhibition, Rhizoctania solani; type: cell-based; settings: Standard DIFOLATAN; 500 ppm, 25° C., 24 hours; 0 = more than 1.6 micrograms/cm^2 required for 99% control
Method: as §1, §2, §3

Piricularia oryzae = type: in vivo; settings: 625 ppm spray; rice seedlings, inoculated 1 day later; relative to untreated check
Phytophthora infestans = test: whole plant or invertebrate; type: in vivo; settings: in Solanum lycopersicum, 168 h, read-out: % Control TLB (Tomato Late Blight)
Pythium ultimum = test: Mycelial Inhibition, Pythium ultimum; type: cell-based; settings: Standard DIFOLATAN; 500 ppm, 25° C., 24 hours; 0 = more than 1.6 micrograms/cm^2 required for 99% control
Method: as §1, §2, §3

[1] = tested on: Alternaria solani conidia; test: Tomato Early Blight (tomato seedlings); type: in vivo; settings: 250 ppm spray, inoculated 1 day later, relative to untreated check
Method: Compounds of the invention were tested for the control of the Tomato Early Blight organism, Alternaria solani conidia. Tomato (variety Bonny Best) seedlings of 6 to 7 weeks old were used. The tomato plants were sprayed with a 250 ppm solution of the test compound in an acetone-and-water solution containing a small amount of a nonionic emulsifier. The sprayed plants were inoculated 1 day later with the organism, placed in the environmental chamber and incubated at 66° to 68° F. and 100% relative humidity for 24 hours. Following the incubation, the plants were maintained in a greenhouse for about 12 days. Percent diseases control was based on the percent disease development on untreated check plants.

Row | SMILES | Mycelial inhibition, Botrytis (% Standard) (Botrytis cinerea) | pest or weed control at 250 ppm (Erisiphe polygoni) | pest or weed control at 250 ppm (Plasmopara viticola) | % Control CLB (Celery Late Blight) (Septoria apii) | pest or weed control at 250 ppm (Uronyces phaseoli tipica) | Mycelial inhibition, Rhizoc. (% Standard) (Rhizoctania solani) | % Control Rice Blast (Piricularia oryzae) | pest or weed control at 250 ppm (Phytophthora infestans) | Mycelial inhibition, Pythium (% Standard) (Pythium ultimum) | % Control TEB (Tomato Early Blight) [1]
1 | CCCc1cc(=O)on1C(=O)c1ccc(Cl)cc1Cl [Compound 3, 3-n-propyl-2-(2',4'-dichlorobenzoyl)-3-isoxazolin-5-one] | 0 % Standard | 0% | 0% | 0% | 0% | 0 % Standard | 44% | 35% | – | –
2 | Cc1cc(=O)on1C(=O)c1ccc([N+](=O)[O-])cc1 [Compound 1, 3-methyl-2-(4'-nitrobenzoyl)-3-isoxazolin-5-one] | 0 % Standard | 0% | 21% | – | 0% | 0 % Standard | – | 0% | 0 % Standard | 0%
3 | Cc1cc(=O)on1C(=O)c1ccc([N+](=O)[O-])cc1Cl [Compound 7] | 0 % Standard | 0% | 19% | 44% | 0% | 0 % Standard | 50% | 31% | 0 % Standard | 0%
4 | CC(C)c1cc(=O)on1C(=O)c1ccc(Cl)cc1Cl [Compound 5] | 0 % Standard | 0% | 3% | 0% | 0% | 23 % Standard | 83% | 69% | – | –
5 | Cc1cc(=O)on1C(=O)c1ccc(Cl)cc1Cl [Compound 2, 3-methyl-2-(2',4'-dichlorobenzoyl)-3-isoxazolin-5-one] | 34 % Standard | 21% | 14% | 99% | 0% | 0 % Standard | – | 97% | 0 % Standard | 92%
6 | Cc1cc(=O)on1C(=O)c1ccc(Cl)cc1 [Compound 6] | 6 % Standard | 0% | 16% | 0% | 0% | 33 % Standard | 0% | 50% | 12 % Standard | 0%
7 | Cc1cc(=O)on1C(=O)c1ccccc1 [Compound 4] | 0 % Standard | 0% | 6% | 0% | 0% | 0 % Standard | 0% | 50% | – | –
8 | Cc1cc(=O)on1C(=O)c1ccc(Cl)cc1[N+](=O)[O-] [Compound 8] | 15 % Standard | 0% | 6% | 11% | 0% | 0 % Standard | 0% | 56% | 0 % Standard | 56%

Reference: patent publication US4504486A (priority 1982, dated 1985)
